Source: patent US20180194762A1 (Pharmacyclics LLC, priority 2017, published 2018)
Where two headings read alike, the source gives them in different places.

Columns and labels:
Btk = biological target: T1, Btk (Homo sapiens, UniProt Q06187); test: Btk in vitro inhibitory activity (one of Method A TR-FRET, Method B electrophoretic mobility shift, Method C radiometric filter binding); assay type: biochemical
T1 construct: purified from insect cells as a full-length construct containing a N-terminal 6X-His tag; His6 (N); made in house; host or cells: insect cells (Method C)
T1 sequence (Q06187 whole entry): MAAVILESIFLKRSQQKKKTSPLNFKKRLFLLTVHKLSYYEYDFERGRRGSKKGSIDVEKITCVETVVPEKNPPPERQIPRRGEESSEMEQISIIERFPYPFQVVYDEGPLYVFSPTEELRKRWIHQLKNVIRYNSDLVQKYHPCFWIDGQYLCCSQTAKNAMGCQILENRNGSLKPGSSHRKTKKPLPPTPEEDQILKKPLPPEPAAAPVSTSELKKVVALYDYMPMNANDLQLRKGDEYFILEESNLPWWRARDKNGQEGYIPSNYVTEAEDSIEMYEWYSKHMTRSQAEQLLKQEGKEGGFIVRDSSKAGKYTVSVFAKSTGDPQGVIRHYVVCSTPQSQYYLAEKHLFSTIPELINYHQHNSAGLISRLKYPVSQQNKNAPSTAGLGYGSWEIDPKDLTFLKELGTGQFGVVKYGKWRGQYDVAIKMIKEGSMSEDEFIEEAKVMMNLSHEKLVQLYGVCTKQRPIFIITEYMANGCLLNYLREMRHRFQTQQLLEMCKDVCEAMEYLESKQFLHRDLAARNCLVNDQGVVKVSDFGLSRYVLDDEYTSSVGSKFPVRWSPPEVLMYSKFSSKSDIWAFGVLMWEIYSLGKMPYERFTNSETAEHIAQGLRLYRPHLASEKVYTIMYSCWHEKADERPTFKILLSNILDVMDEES
Method: Example 62a: Btk In Vitro Inhibitory Activity (Method A)
Btk kinase activity is determined using a time-resolved fluorescence resonance energy transfer (TR-FRET) methodology. Measurements are performed in a reaction volume of 50 μL using 96-well assay plates. […] The reaction is quenched by the addition of 1.2 equivalents of EDTA (relative to divalent cation) in 25 μL of 1× Lance buffer (Perkin-Elmer). Streptavidin-APC (Perkin-Elmer) and Eu-labeled p-Tyr100 antibody (Perkin-Elmer) in 1× Lance buffer are added in a 25 μL volume to give final concentrations of 100 nM and 2.5 nM, respectively, and the mixture is allowed to incubate for one hour. The TR-FRET signal is measured on a multimode plate reader with an excitation wavelength (λEx) of 330 nm and detection wavelengths (λEm) of 615 and 665 nm. Activity is determined by the ratio of the fluorescence at 665 nm to that at 615 nm. For each compound, enzyme activity is measured at various concentrations of compound. Negative control reactions are performed in the absence of inhibitor in replicates of six, and two no-enzyme controls are used to determine baseline fluorescence levels. Inhibition constants, Ki(app), were obtained using the program BatchKi (Kuzmic et al. (2000), Anal. Biochem. 286:45-50). IC50s are obtained according to the equation:
IC50={Ki(app)/(1+[ATP]/Km^ATP)}+[E]total/2;
For all kinases, [ATP]=Km^ATP, [Btk]total=0.5 nM and [Lck]total=6 nM.
Example 62b: Btk In Vitro Inhibitory Activity (Method B)
Kinase activity is measured in vitro using electrophoretic mobility shift assay. The kinase reactions are assembled in a total volume of 25 μL in 384 well plates. The reactions comprise: BTK enzyme (1 nM, N-terminal His6-tagged, recombinant, full-length, human BTK purified from baculovirus Sf21 insect cell system, 293HEK, or other suitable source), inhibitor, ATP, fluorescently labeled peptide substrate (1 μM, FAM-GEEPLYWSFPAKKK-NH2) in a reaction buffer composed of 100 mM HEPES, pH7.5, 5 mM MgCl2 1 mM DTT, 0.1% bovine serum albumin, 0.01% Triton X-100, and 1% DMSO. The reaction is incubated and is quenched by the addition of termination buffer (100 mM HEPES, pH 7.5, 0.01% Triton X-100, 30 mM EDTA). The terminated reactions are analyzed using a 12 channel LabChip® 3000 microfluidic detection instrument (Caliper Life Sciences). The enzymatic phosphorylation of the peptide results in a change in net charge, enabling electrophoretic separation of product from substrate peptide. As substrate and product peptides are separated, two peaks of fluorescence are observed. Change in the relative fluorescence intensity of the substrate and product peaks is the parameter measured, reflecting enzyme activity. In the presence of an inhibitor, the ratio between product and substrate is altered: the signal of the product decreases, while the signal of the substrate increases.
Activity in each sample is determined as the product to sum ratio (PSR):P/(S+P), where P is the peak height of the product peptide and S is the peak height of the substrate peptide. For each compound, enzyme activity is measured at various concentrations (12 concentrations of compound spaced by 3× dilution intervals). Negative control samples (0%—inhibition in the absence of inhibitor) and positive control samples (100%—inhibition, in the presence of 20 mM EDTA) are assembled in replicates of four and are used to calculate %—inhibition values for each inhibitor at each concentration. Percent inhibition (Pinh) is determined using following equation:
Pinh=(PSR0%−PSRinh)/(PSR0%−PSR100%)*100, where PSRinh is the product sum ratio in the presence of inhibitor, PSR0% is the average product sum ration in the absence of inhibitor and PSR100% is the average product sum ratio in 100%—inhibition control samples.
The IC50 values of inhibitors are determined by 4 parameter sigmoidal dose-response model fitting of the inhibition curves (Pinh versus inhibitor concentration) using XLfit 4 software. […]

TEC = biological target: T2, TEC (Homo sapiens, UniProt P42680); test: Inhibition of a panel of kinases (in vitro HotSpot kinase assay, 33P-ATP, 1 μM ATP); assay type: biochemical; settings: for TEC/Btk: ratio of TEC IC50 to Btk IC50 (selectivity); for IC50: HotSpot kinase assay, 1 μM ATP
T2 sequence (P42680 1-631): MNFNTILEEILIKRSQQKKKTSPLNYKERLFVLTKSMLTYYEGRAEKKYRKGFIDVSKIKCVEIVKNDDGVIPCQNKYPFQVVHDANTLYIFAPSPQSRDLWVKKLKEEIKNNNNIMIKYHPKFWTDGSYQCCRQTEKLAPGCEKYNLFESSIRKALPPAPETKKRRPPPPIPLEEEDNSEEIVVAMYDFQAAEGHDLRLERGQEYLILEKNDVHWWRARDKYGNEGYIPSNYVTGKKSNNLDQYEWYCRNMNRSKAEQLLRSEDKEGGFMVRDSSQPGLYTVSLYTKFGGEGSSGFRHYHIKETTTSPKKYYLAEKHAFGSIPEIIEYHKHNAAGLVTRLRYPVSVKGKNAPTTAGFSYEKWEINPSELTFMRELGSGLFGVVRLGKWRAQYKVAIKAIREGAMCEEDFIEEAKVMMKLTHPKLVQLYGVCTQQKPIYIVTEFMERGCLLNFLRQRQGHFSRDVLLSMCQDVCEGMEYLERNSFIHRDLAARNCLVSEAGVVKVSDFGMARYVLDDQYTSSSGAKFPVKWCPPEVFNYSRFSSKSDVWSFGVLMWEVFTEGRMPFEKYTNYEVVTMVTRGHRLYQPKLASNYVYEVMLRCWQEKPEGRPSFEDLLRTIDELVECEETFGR
Method: Example 63: Inhibition of a Panel of Kinases The degree of inhibition of a panel of kinases is determined using the in vitro HotSpot kinase assay (purified enzymes, ^33P-ATP, an appropriate substrate and 1 μM ATP).

[1] = wild-type Btk, read-out: Btk-WT IC50
[2] = method is one of A, B or C, not stated which, read-out: IC50 values against Btk

| IC50 (Btk; [1]) | TEC/Btk (TEC) | IC50 (TEC) | IC50 (Btk; [2]) | Structure (SMILES) |
| --- | --- | --- | --- | --- |
| 879 nM | 11 | – | – | CC(C)(C)c1ccc(C(=O)NCc2ccc(-c3ccnc4[nH]nc(N[C@H]5CC[C@H](O)CC5)c34)cc2F)cc1 [Compound 12, 4-tert-butyl-N-{[2-fluoro-4-(3-{[(1r,4r)-4-hydroxycyclohexyl]amino}-1H-pyrazolo[3,4-b]pyridin-4-yl)phenyl]methyl}benzamide] |
| 21.2 nM | 197 | 4170 nM | – | C[C@@H]1[C@H](Nc2n[nH]c3nccc(-c4ccc(CNC(=O)c5noc(C(C)(C)C)n5)c(F)c4)c23)CCCN1CC#N [Example 142, 5-tert-butyl-N-{[4-(3-{[(2R,3R)-1-(cyanomethyl)-2-methylpiperidin-3-yl]amino}-1H-pyrazolo[3,4-b]pyridin-4-yl)-2-fluorophenyl]methyl}-1,2,4-oxadiazole-3-carboxamide] |
| > 10000 nM | – | > 10000 nM | – | C[C@H](NC(=O)c1ccc(C(C)(C)C)cc1)c1ccc(-c2ccnc3[nH]nc(N[C@@H]4CCNC4)c23)cc1 [Example 91, 4-tert-butyl-N-[(1S)-1-[4-(3-{[(3R)-pyrrolidin-3-yl]amino}-1H-pyrazolo[3,4-b]pyridin-4-yl)phenyl]ethyl]benzamide] |
| 932 nM | >100 | > 10000 nM | – | CC(C)(O)c1ccc(C(=O)NCc2ccc(-c3ccnc4[nH]nc(N[C@H]5CC[C@H](O)CC5)c34)cc2F)cc1 [Compound 26, N-{[2-fluoro-4-(3-{[(1r,4r)-4-hydroxycyclohexyl]amino}-1H-pyrazolo[3,4-b]pyridin-4-yl)phenyl]methyl}-4-(2-hydroxypropan-2-yl)benzamide] |
| 4.46 nM | 321 | 1430 nM | < 10 nM | C[C@@H](NC(=O)c1noc(C(C)(C)C)n1)c1ccc(-c2ccnc3[nH]nc(N[C@@H]4CCN(C=O)C4)c23)cc1 [Example 99, 5-tert-butyl-N-[(1R)-1-[4-(3-{[(3R)-1-formylpyrrolidin-3-yl]amino}-1H-pyrazolo[3,4-b]pyridin-4-yl)phenyl]ethyl]-1,2,4-oxadiazole-3-carboxamide] |
| 44.2 nM | 142 | 6260 nM | – | CC(C)(C)c1cc(C(=O)NCc2ccc(-c3ccnc4[nH]nc(N[C@H]5CC[C@H](O)CC5)c34)cc2F)no1 [Compound 27, 5-tert-butyl-N-{[2-fluoro-4-(3-{[(1r,4r)-4-hydroxycyclohexyl]amino}-1H-pyrazolo[3,4-b]pyridin-4-yl)phenyl]methyl}-1,2-oxazole-3-carboxamide] |
| 26.3 nM | – | – | – | CC(C)(C)c1nc(C(=O)NCc2ccc(-c3ccnc4[nH]nc(OC5CCNC5)c34)cc2F)no1 (centres unmarked) [Example 269, 5-tert-butyl-N-[(2-fluoro-4-{3-[(pyrrolidin-3-yl)oxy]-1H-pyrazolo[3,4-b]pyridin-4-yl}phenyl)methyl]-1,2,4-oxadiazole-3-carboxamide] |
| – | – | – | < 10 nM | C=CC(=O)N1CC[C@@H](Nc2n[nH]c3nccc(-c4ccc(C5(NC(=O)c6noc(C(C)(C)C)n6)CC5)cc4)c23)C1 [Example 4, 5-tert-butyl-N-{1-[4-(3-{[(3R)-1-(prop-2-enoyl)pyrrolidin-3-yl]amino}-1H-pyrazolo[3,4-b]pyridin-4-yl)phenyl]cyclopropyl}-1,2,4-oxadiazole-3-carboxamide] |
| – | – | – | < 10 nM | C=CC(=O)N1CC[C@@H](Nc2n[nH]c3nccc(-c4ccc(CNC(=O)c5ccccc5)c(F)c4)c23)C1 [Example 33, N-{[2-fluoro-4-(3-{[(3R)-1-(prop-2-enoyl)pyrrolidin-3-yl]amino}-1H-pyrazolo[3,4-b]pyridin-4-yl)phenyl]methyl}benzamide] |
| – | – | – | < 10 nM | C=CC(=O)N1CC[C@@H](Nc2n[nH]c3nccc(-c4cccc(NC(=O)c5ccc(C(C)(C)C)cc5)c4C)c23)C1 [Example 9, 4-tert-butyl-N-[2-methyl-3-(3-{[(3R)-1-(prop-2-enoyl)pyrrolidin-3-yl]amino}-1H-pyrazolo[3,4-b]pyridin-4-yl)phenyl]benzamide] |
| – | – | – | < 10 nM | C=CC(=O)N1CC[C@@H](Nc2n[nH]c3nccc(-c4ccc(CNC(=O)c5ccc(C(C)(C)C)cc5)c(F)c4)c23)C1 [Example 6, 4-tert-butyl-N-{[2-fluoro-4-(3-{[(3R)-1-(prop-2-enoyl)pyrrolidin-3-yl]amino}-1H-pyrazolo[3,4-b]pyridin-4-yl)phenyl]methyl}benzamide] |
| 41.9 nM | – | – | – | C[C@H](NC(=O)c1noc(C(C)(C)C)n1)c1ccc(-c2ccnc3[nH]nc(N[C@@H]4CCN(C(=O)N(C)C)C4)c23)cc1F [Example 291, 5-tert-butyl-N-{(1S)-1-[4-(3-{[(3R)-1-(dimethylcarbamoyl)pyrroli-din-3-yl]amino}-1H-pyrazolo[3,4-b]pyridin-4-yl)-2-fluorophenyl]ethyl}-1,2,4-oxadiazole-3-carboxamide] |
| 323 nM | – | – | – | CC1(C)Cc2cc3n(c2C1)CCN(c1nccc(-c2ccnc4[nH]nc(NC5CCNC5)c24)c1CO)C3=O (centres unmarked) [Example 297, 2-[3-(hydroxymethyl)-4-{3-[(pyrrolidin-3-yl)amino]-1H-pyrazolo[3,4-b]pyridin-4-yl}pyridin-2-yl]-7,7-dimethyl-3,4,7,8-tetrahydro-2H-cyclopenta[4,5]pyrrolo[1,2-a]pyrazin-1(6H)-one] |
| 81.4 nM | – | – | – | C[C@H](NC(=O)c1noc(C(C)(C)C)n1)c1ccc(-c2ccnc3[nH]nc(N[C@@H]4CCNC4)c23)cc1F [Example 290, 5-tert-butyl-N-{(1S)-1-[2-fluoro-4-(3-{[(3R)-pyrrolidin-3-yl]amino}-1H-pyrazolo[3,4-b]pyridin-4-yl)phenyl]ethyl}-1,2,4-oxadiazole-3-carboxamide] |
| – | – | – | < 10 nM | C=CC(=O)N1CC[C@@H](Nc2n[nH]c3nccc(-c4ccc(CNC(=O)c5ccc(C)cc5)c(F)c4)c23)C1 [Example 34, N-{[2-fluoro-4-(3-{[(3R)-1-(prop-2-enoyl)pyrrolidin-3-yl]amino}-1H-pyrazolo[3,4-b]pyridin-4-yl)phenyl]methyl}-4-methylbenzamide] |
